Assay: Charge per mass of developers after exercise periods, MECCA device
Type: physicochemical
Conditions: clear polyester toner, 2 pph Bontron E-84; for Fresh Developer 10 min exercise (charge values) / Fresh developer 2 min shake (charge values) / Rebuilt developer 2 min shake (charge values) / Rebuilt developer 10 min exercise (charge values): Binder C resin; for Fresh Developer 10 min exercise (charge per mass) / Fresh developer 2 min shake (charge per mass) / Rebuilt developer 2 min shake (charge per mass) / Rebuilt developer 10 min exercise (charge per mass): LLT-101 resin

SMILES	Fresh Developer 10 min exercise (charge values) (0.2 pph added acid)	Fresh developer 2 min shake (charge values) (0.2 pph added acid)	Rebuilt developer 2 min shake (charge values) (0.2 pph added acid)	Rebuilt developer 10 min exercise (charge values) (0.2 pph added acid)	Fresh Developer 10 min exercise (charge values) (1 pph added acid)	Fresh developer 2 min shake (charge values) (1 pph added acid)	Rebuilt developer 2 min shake (charge values) (1 pph added acid)	Rebuilt developer 10 min exercise (charge values) (1 pph added acid)	Fresh Developer 10 min exercise (charge values) (5 pph added acid)	Fresh developer 2 min shake (charge values) (5 pph added acid)	Rebuilt developer 2 min shake (charge values) (5 pph added acid)	Rebuilt developer 10 min exercise (charge values) (5 pph added acid)	other results
Nc1ccc(C(=O)O)cc1 [4-aminobenzoic acid]	−78.1 μC/g	−35.3 μC/g	−63.2 μC/g	−72.1 μC/g	−84.8 μC/g	−40.0 μC/g	−56.8 μC/g	−67.7 μC/g	−71.6 μC/g	−36.9 μC/g	−42.6 μC/g	−60.5 μC/g	–
C=C(CC(=O)O)C(=O)O [Itaconic acid]	−63.1 μC/g	−20.6 μC/g	−41.3 μC/g	−49.7 μC/g	−33.7 μC/g	−13.6 μC/g	−10.2 μC/g	−22.6 μC/g	−24.1 μC/g	−11.9 μC/g	−6.4 μC/g	−18.7 μC/g	–
CCCCCCCCCCCC(=O)O [Lauric acid]	−88.1 μC/g	−44.3 μC/g	−60.1 μC/g	−77.5 μC/g	−104.5 μC/g	−43.7 μC/g	−69.6 μC/g	−90.8 μC/g	bicharged	−14.7 μC/g	−35.0 μC/g	bicharged	Fresh Developer 10 min exercise (charge per mass) (0.2 pph added acid): −96.0 μC/g; Fresh developer 2 min shake (charge per mass) (0.2 pph added acid): −40.9 μC/g; Rebuilt developer 2 min shake (charge per mass) (0.2 pph added acid): −83.5 μC/g; Rebuilt developer 10 min exercise (charge per mass) (0.2 pph added acid): −110.1 μC/g; Fresh Developer 10 min exercise (charge per mass) (1 pph added acid): −125.5 μC/g; Fresh developer 2 min shake (charge per mass) (1 pph added acid): −52.5 μC/g; Rebuilt developer 2 min shake (charge per mass) (1 pph added acid): −114.0 μC/g; Rebuilt developer 10 min exercise (charge per mass) (1 pph added acid): −123.0 μC/g; Fresh Developer 10 min exercise (charge per mass) (5 pph added acid): bicharged; Fresh developer 2 min shake (charge per mass) (5 pph added acid): −8.7 μC/g; Rebuilt developer 2 min shake (charge per mass) (5 pph added acid): −12.1 μC/g; Rebuilt developer 10 min exercise (charge per mass) (5 pph added acid): −6.2 μC/g
O=C(O)c1ccccc1O [Salicylic acid]	−65.5 μC/g	−22.7 μC/g	−46.5 μC/g	−62.0 μC/g	−50.5 μC/g	−21.0 μC/g	−25.5 μC/g	−46.5 μC/g	−41.1 μC/g	−17.4 μC/g	−17.0 μC/g	−42.8 μC/g	–
